Converted amounts (≈) assume the structure as drawn. Where two headings read alike, the source gives them in different places.
Assays:
Rhino 15 = assay: Multicycle CPE reduction assay, Rhino 15; assay type: cell-based; conditions: incubation at 37° C. in HeLa cells
Description: (§1) The test compounds were evaluated for anti-picornavirus activity by a multicycle cytopathic effect (CPE) reduction assay. The antiviral activity was initially determined using an MTS [3-(4,5-dimethylthiazol-2-yl)-5-(3-carboxymethoxyphenyl)-2-(4-sulfophenyl-2H-tetrazolium]-based CPE reduction assay.
(§2) In this regard, cells grown to confluence in 96-well plates were infected with 100 50% cell culture infective doses (CCID50) of virus. After an adsorption period of 2 hrs at 37° C., virus was removed and serial dilutions of the compounds were added. […] After removal of the medium, 90 μl of a culture medium and 10 μl of MTS-phenazine methosulfate (Promega, Leiden, The Netherlands) were added to each well. After an incubation period of 2 hrs at 37° C., the optical density (OD) of each well was read at 498 nm in a microplate reader.
(§3) CPE values for evaluating antiviral activity were calculated using the following Mathematic Formula 3: […]
(§4) The 50% effective concentration (EC50) and the 50% cytotoxic concentration (CC50) were defined as the concentrations of compound that offered 50% protection against virus-induced CPE and that killed cells by 50%, respectively, and were calculated using logarithmic interpolation.

Polio 3 = assay: organism not typed; assay type: cell-based; conditions: BGM, read-out: Polio 3 EC50
Coxsackie A21 = assay: Multicycle CPE reduction assay, Coxsackie A21; assay type: cell-based; conditions: MRC5; incubation at 37° C. in MRC-5 cells
Description: as §1, §2, §3, §4

Coxsackie A16 = assay: Multicycle CPE reduction assay, Coxsackie A16; assay type: cell-based; conditions: MRC5; incubation at 37° C. in MRC-5 cells
Description: as §1, §2, §3, §4

Rhino 41 = assay: Multicycle CPE reduction assay, Rhino 41; assay type: cell-based; conditions: incubation at 37° C. in HeLa cells
Description: as §1, §2, §3, §4

Rhino 42 = assay: Multicycle CPE reduction assay, Rhino 42; assay type: cell-based; conditions: incubation at 37° C. in HeLa cells
Description: as §1, §2, §3, §4

Rhino 63 = assay: Multicycle CPE reduction assay, Rhino 63; assay type: cell-based; conditions: incubation at 37° C. in HeLa cells
Description: as §1, §2, §3, §4

Polio 1 = assay: organism not typed; assay type: cell-based; conditions: BGM, read-out: Polio 1 EC50
Rhino 39 = assay: Multicycle CPE reduction assay, Rhino 39; assay type: cell-based; conditions: incubation at 37° C. in HeLa cells
Description: as §1, §2, §3, §4

Polio 2 = assay: organism not typed; assay type: cell-based; conditions: BGM, read-out: Polio 2 EC50
Rhino 72 = assay: Multicycle CPE reduction assay, Rhino 72; assay type: cell-based; conditions: incubation at 37° C. in HeLa cells
Description: as §1, §2, §3, §4

Rhino 45 = assay: Multicycle CPE reduction assay, Rhino 45; assay type: cell-based; conditions: incubation at 37° C. in HeLa cells
Description: as §1, §2, §3, §4

in vitro = conditions: human
Rhino 85 = assay: Multicycle CPE reduction assay, Rhino 85; assay type: cell-based; conditions: incubation at 37° C. in HeLa cells
Description: as §1, §2, §3, §4

Echo 11 = assay: Multicycle CPE reduction assay, Echo 11; assay type: cell-based; conditions: BGM, read-out: Echo 11 EC50
Description: as §1, §2, §3, §4

Rhino 29 = assay: Multicycle CPE reduction assay, Rhino 29; assay type: cell-based; conditions: incubation at 37° C. in HeLa cells
Description: as §1, §2, §3, §4

Entero 71 = assay: Multicycle CPE reduction assay, Entero 71; assay type: cell-based; conditions: incubation at 37° C. in RD cells
Description: as §1, §2, §3, §4

Rhino 89 = assay: Multicycle CPE reduction assay, Rhino 89; assay type: cell-based; conditions: HeLa, read-out: Rhino 89 EC50
Description: as §1, §2, §3, §4

Rhino 9 = assay: Multicycle CPE reduction assay, Rhino 9; assay type: cell-based; conditions: incubation at 37° C. in HeLa cells
Description: as §1, §2, §3, §4

Rhino 86 = assay: Multicycle CPE reduction assay, Rhino 86; assay type: cell-based; conditions: incubation at 37° C. in HeLa cells
Description: as §1, §2, §3, §4

Rhino 70 = assay: Multicycle CPE reduction assay, Rhino 70; assay type: cell-based
Description: as §1, §2, §3, §4

Rhino 2 = assay: Multicycle CPE reduction assay, Rhino 2; assay type: cell-based; conditions: incubation at 37° C. in HeLa cells
Description: as §1, §2, §3, §4

[1] = Cytotoxicity (CC50), MTS-based assay (Experimental Example 2); assay type: cell-based
Description: as §1, §2
CPE values for evaluating cytotoxicity were calculated using the following Mathematic Formula 4: […]
as §4

Echo 9 = assay: Multicycle CPE reduction assay, Echo 9; assay type: cell-based
Description: as §1, §2, §3, §4

Rhino 59 = assay: Multicycle CPE reduction assay, Rhino 59; assay type: cell-based; conditions: incubation at 37° C. in HeLa cells
Description: as §1, §2, §3, §4

Coxsackie A9 = assay: Multicycle CPE reduction assay, Coxsackie A9; assay type: cell-based; conditions: incubation at 37° C. in BGM cells
Description: as §1, §2, §3, §4

Rhino 14 = assay: Multicycle CPE reduction assay, Rhino 14; assay type: cell-based; conditions: incubation at 37° C. in HeLa cells
Description: as §1, §2, §3, §4

Poliovirus 3 = assay: microbe, parasite or virus in culture; assay type: cell-based; conditions: Enterovirus C, read-out: Poliovirus3 EC50
[2] = HeLa, read-out: Rhino 70 EC50, incubation at 37° C. in HeLa cells

| SMILES | EC50 (Rhino 15) | EC50 (Polio 3) | EC50 (Rhino 41) | EC50 (Rhino 42) | EC50 (Rhino 63) | EC50 (Polio 1) | EC50 (Rhino 39) | melting point | EC50 (Polio 2) | EC50 (Rhino 72) | EC50 (Rhino 45; HeLa) | CC50 (in vitro; Picorana CC50) | EC50 (Rhino 85) | EC50 (Echo 11) | EC50 (Rhino 29) | EC50 (Entero 71) | EC50 (Rhino 89) | EC50 (Rhino 9) | EC50 (Rhino 2) | CC50 at 3 days [1] | also measured |
| --- | --- | --- | --- | --- | --- | --- | --- | --- | --- | --- | --- | --- | --- | --- | --- | --- | --- | --- | --- | --- | --- |
| CC(C)c1ccc2c(c1)OC1(O)c3ccccc3C(=O)C21O (stereo not drawn) [Example 10, 4b,9b-Dihydroxy-7-isopropyl-4bH-benzo[d]indeno[1,2-b]furan-10(9bH)-one] | > 50000 nM | 1000 ± 570 nM | 8800 ± 120 nM | > 50000 nM | > 50000 nM | 750 ± 370 nM | > 50000 nM | 195 to 198 °C | 360 ± 150 nM | 5300 ± 1200 nM | 3400 ± 1500 nM | 14.2 µg/mL (≈ 47.9 µM) | > 50000 nM | 21 nM | > 50000 nM | 12 ± 2 nM | > 50000 nM | > 50000 nM | > 50000 nM | > 100000 nM | EC50 (Coxsackie A21): 1100 ± 580 nM; EC50 (Coxsackie A16): 90 ± 35 nM; CC50 (in vitro): 18.4 µg/mL (≈ 62.2 µM); EC50 (Rhino 86): 8000 ± 2900 nM; EC50 (Rhino 70; [2]): 2400 ± 360 nM; EC50 (Echo 9; MRC5, incubation at 37° C. in MRC-5 cells, read-out: Echo 9 EC50): 25 ± 5.7 nM |
| CC(=O)NC12C(=O)c3ccccc3C1(O)Oc1cc(C(C)C)ccc12 (stereo not drawn) [Example 66, N-(4b-Hydroxy-7-isopropyl-10-oxo-4b,10-dihydro-5-oxa-indeno[2,1-a]inden-9b-yl)-acetamide] | 4600 ± 1300 nM | 580 ± 6.9 nM | 600 ± 26 nM | 150 ± 23 nM | > 10000 nM | 690 ± 170 nM | 1800 ± 370 nM | – | 230 ± 20 nM | 130 ± 69 nM | 1700 ± 460 nM | 44.7 µg/mL (≈ 133 µM) | > 5800 nM | 7.2 ± 0.18 nM | 6400 ± 830 nM | 25 ± 0.92 nM | 630 ± 23 nM | 2300 ± 700 nM | 5900 ± 250 nM | > 100000 nM | EC50 (Rhino 59): > 10000 nM; EC50 (Coxsackie A9): 8.3 ± 0.43 nM; EC50 (Rhino 86): 70 ± 6.6 nM; EC50 (Rhino 70; [2]): 57 ± 17 nM |
| CC(C)c1ccc2c(c1)O[C@@]1(O)c3cccc(N)c3C(=O)[C@@]21O [Example 46, 1-Amino-4b,9b-dihydroxy-7-isopropyl-4bH-benzo[d]indeno[1,2-b]furan-10(9bH)-one] | 2800 ± 260 nM | 43 ± 17 nM | 470 ± 36 nM | – | 8500 ± 130 nM | 68 nM | 3000 ± 170 nM | 180 to 182 °C | 18 ± 1.9 nM | – | ≤ 78 nM | 9.42 µg/mL (≈ 30.3 µM) | 6200 ± 700 nM | 2.3 ± 0.88 nM | 4600 ± 720 nM | 3.1 nM | 340 ± 860 nM | 3500 ± 150 nM | > 10000 nM | > 100000 nM | EC50 (Rhino 14): < 10 nM; EC50 (Poliovirus 3): < 0.01 µg/mL; EC50 (Rhino 45; listed as Ex. 46): < 78 nM; CC50 (in vitro): 18.3 µg/mL (≈ 58.9 µM); EC50 (Coxsackie A9): 1.7 nM; EC50 (Rhino 70; HeLa, incubation at 37° C. in HeLa cells, read-out: Rhino 70 EC50): ≤ 78 nM; EC50 (Rhino 70; read-out: Rhino 70 EC50, incubation at 37° C. in HeLa cells, listed as Ex. 46): > 78 nM; EC50 (Echo 9; MRC5, read-out: Echo 9 EC50): 3.5 nM |

Reference: patent US9890133B2 (priority 2011, dated 2018)
